# How the values were obtained:
# [1] = molecular target: T1, c-Met (baculovirus expressed human c-Met kinase domain P948-S1343) (Homo sapiens, UniProt P08581); experiment: c-Met Luciferase-Coupled Chemiluminescent Kinase assay (LCCA); assay type: biochemical;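 further: kinase activity read as percent ATP left after reaction, by luciferase-luciferin chemiluminescence, with 1 µM ATP and 1 µM poly-EY substrate, 2 h at ambient temperature, 10-point dose-response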
# T1 construct: human c-Met kinase domain P948-S1343; host or cells: baculovirus expression
# T1 sequence (P08581 1011-1343 limits assumed): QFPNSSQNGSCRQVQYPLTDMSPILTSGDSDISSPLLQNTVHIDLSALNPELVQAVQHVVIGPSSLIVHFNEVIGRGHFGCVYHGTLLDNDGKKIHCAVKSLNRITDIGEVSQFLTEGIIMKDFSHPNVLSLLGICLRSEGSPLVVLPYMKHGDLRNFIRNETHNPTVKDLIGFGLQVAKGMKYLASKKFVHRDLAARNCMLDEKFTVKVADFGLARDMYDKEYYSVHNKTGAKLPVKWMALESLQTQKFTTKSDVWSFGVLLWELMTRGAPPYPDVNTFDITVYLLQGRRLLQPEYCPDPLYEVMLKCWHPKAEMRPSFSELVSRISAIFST
# [2] = molecular target: T2, KDR (baculovirus expressed human KDR kinase domain D807-V1356) (Homo sapiens, UniProt P35968); experiment: biochemical;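 further: Luciferase-coupled chemiluminescent kinase assay, activity read as percent ATP left after 4 h reaction at ambient temperature, ATP near KM, 10-point dose-response in 384-well plates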
# T2 construct: human KDR kinase domain D807-V1356; host or cells: baculovirus expression
# T2 sequence (P35968 807-1356): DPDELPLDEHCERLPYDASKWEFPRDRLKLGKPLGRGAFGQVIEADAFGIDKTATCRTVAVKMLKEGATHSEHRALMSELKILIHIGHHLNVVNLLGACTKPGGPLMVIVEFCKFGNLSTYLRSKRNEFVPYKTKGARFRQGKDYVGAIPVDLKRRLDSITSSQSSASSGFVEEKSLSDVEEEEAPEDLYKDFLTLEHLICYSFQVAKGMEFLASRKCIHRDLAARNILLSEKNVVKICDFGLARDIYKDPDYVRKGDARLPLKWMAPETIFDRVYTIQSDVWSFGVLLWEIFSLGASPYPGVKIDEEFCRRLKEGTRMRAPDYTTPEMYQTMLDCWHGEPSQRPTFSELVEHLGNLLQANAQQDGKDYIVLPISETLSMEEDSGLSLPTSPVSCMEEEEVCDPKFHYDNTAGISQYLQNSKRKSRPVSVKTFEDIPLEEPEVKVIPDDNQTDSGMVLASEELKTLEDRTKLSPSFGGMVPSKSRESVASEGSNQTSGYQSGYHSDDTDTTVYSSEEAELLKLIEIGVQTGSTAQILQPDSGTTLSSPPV
# Experimental: (§1) Kinase activity and compound inhibition are investigated using one or more of the three assay formats described below. The ATP concentrations for each assay are selected to be close to the Michaelis-Menten constant (KM) for each individual kinase. Dose-response experiments are performed at 10 different inhibitor concentrations in a 384-well plate format.
# KDR biochemical activity was assessed using a Luciferase-Coupled Chemiluminescent Kinase assay (LCCA) format. Kinase activity was measured as the percent ATP remaining following the kinase reaction. Remaining ATP was detected by luciferase-luciferin-coupled chemiluminescence. […] The mixture is incubated at ambient temperature for 4 hours after which 20 uL luciferase-luciferin mix is added and the chemiluminescent signal read using a Wallac Victor^2 reader.
# [3] = molecular target: T3, Flt-3 (baculovirus expressed human Flt-3 kinase domain R571-S993) (Homo sapiens, UniProt P36888); experiment: biochemical; conditions: read-out: flt3 IC50;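 further: Luciferase-coupled chemiluminescent kinase assay, activity read as percent ATP left after a 3 h reaction at room temperature, ATP near KM, 10-point dose-response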
# T3 construct: human Flt-3 kinase domain R571-S993; host or cells: baculovirus expression
# T3 sequence (P36888 571-993): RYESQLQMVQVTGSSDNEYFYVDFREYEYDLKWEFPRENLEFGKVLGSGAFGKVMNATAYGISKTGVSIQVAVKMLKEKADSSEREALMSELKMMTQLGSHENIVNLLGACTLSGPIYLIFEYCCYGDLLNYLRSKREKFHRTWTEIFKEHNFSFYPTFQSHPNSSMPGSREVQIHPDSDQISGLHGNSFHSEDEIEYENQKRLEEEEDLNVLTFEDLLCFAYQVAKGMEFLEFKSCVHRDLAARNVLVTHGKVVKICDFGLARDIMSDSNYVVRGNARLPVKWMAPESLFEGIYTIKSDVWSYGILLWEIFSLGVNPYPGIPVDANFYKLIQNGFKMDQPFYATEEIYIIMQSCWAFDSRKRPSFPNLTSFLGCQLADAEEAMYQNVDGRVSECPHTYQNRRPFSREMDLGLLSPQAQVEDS
# Experimental: as §1
# Biochemical activity for flt-3 was assessed using a Luciferase-Coupled Chemiluminescent Kinase assay (LCCA) format. Kinase activity was measured as the percent ATP remaining following the kinase reaction. Remaining ATP was detected by luciferase-luciferin-coupled chemiluminescence. […] The mixture is incubated at ambient temperature for 3 hours after which 20 uL luciferase-luciferin mix is added and the chemiluminescent signal read using a Wallac Victor^2 reader.
SMILES,IC50 [1],IC50 [2],IC50 [3]
"COc1cc2c(Oc3ccc(NC(=O)[C@]4(C(=O)Nc5ccc(F)cc5)C[C@H]4C)cc3F)ccnc2cc1OCCCN1CCNCC1 [Example 356, (1R,2R)-N-[3-fluoro-4-({6-(methyloxy)-7-[(3-piperazin-1-ylpropyl)oxy]quinolin-4-yl}oxy)phenyl]-N′-(4-fluorophenyl)-2-methylcyclopropane-1,1-dicarboxamide]",< 50 nM,< 50 nM,< 50 nM
"COc1cc2c(Oc3ccc(NC(=O)C4(C(=O)Nc5ccc(F)cc5)CC4)cc3F)ccnc2cc1OCCCN1CCN(C(C)C)CC1 [Example 357, N-(3-fluoro-4-{[7-({3-[4-(1-methylethyl)piperazin-1-yl]propyl}oxy)-6-(methyloxy)quinolin-4-yl]oxy}phenyl)-N′-(4-fluorophenyl)cyclopropane-1,1-dicarboxamide]",< 50 nM,< 50 nM,< 50 nM
"CCN(CC)CCCOc1cc2nccc(Oc3ccc(NC(=O)[C@]4(C(=O)Nc5ccc(F)cc5)C[C@H]4C)cc3F)c2cc1OC [Example 359, (1R,2R)-N-(4-{[7-{[3-(diethylamino)propyl]oxy}-6-(methyloxy)quinolin-4-yl]oxy}-3-fluorophenyl)-N′-(4-fluorophenyl)-2-methylcyclopropane-1,1-dicarboxamide]",< 50 nM,< 50 nM,< 50 nM
"CCN(CC)CCOc1cc2nccc(Oc3ccc(NC(=O)[C@]4(C(=O)Nc5ccc(F)cc5)C[C@H]4C)cc3F)c2cc1OC [Example 360, (1R,2R)-N-(4-{[7-{[2-(diethylamino)ethyl]oxy}-6-(methyloxy)quinolin-4-yl]oxy}-3-fluorophenyl)-N′-(4-fluorophenyl)-2-methylcyclopropane-1,1-dicarboxamide]",< 50 nM,< 50 nM,< 50 nM
"CCN(CC)CCCOc1cc2nccc(Oc3ccc(NC(=O)[C@]4(C(=O)Nc5ccc(F)cc5)C[C@@H]4C)cc3F)c2cc1OC [Example 361, (1R,2S)-N-(4-{[7-{[3-(diethylamino)propyl]oxy}-6-(methyloxy)quinolin-4-yl]oxy}-3-fluorophenyl)-N′-(4-fluorophenyl)-2-methylcyclopropane-1,1-dicarboxamide]",< 50 nM,< 50 nM,< 50 nM
"CCN(CC)CCOc1cc2nccc(Oc3ccc(NC(=O)[C@]4(C(=O)Nc5ccc(F)cc5)C[C@@H]4C)cc3F)c2cc1OC [Example 362, (1R,2S)-N-(4-{[7-{[2-(diethylamino)ethyl]oxy}-6-(methyloxy)quinolin-4-yl]oxy}-3-fluorophenyl)-N′-(4-fluorophenyl)-2-methylcyclopropane-1,1-dicarboxamide]",< 50 nM,< 50 nM,< 50 nM
"COc1cc2c(Oc3ccc(NC(=O)[C@]4(C(=O)Nc5ccc(F)cc5)C[C@@H]4C)cc3F)ccnc2cc1OCCCN1CCNCC1 [Example 364, (1R,2S)-N-[3-fluoro-4-({6-(methyloxy)-7-[(3-piperazin-1-ylpropyl)oxy]quinolin-4-yl}oxy)phenyl]-N′-(4-fluorophenyl)-2-methylcyclopropane-1,1-dicarboxamide]",< 50 nM,< 50 nM,< 50 nM
"COc1cc2c(Oc3ccc(NC(=O)[C@@]4(C(=O)Nc5ccc(F)cc5)[C@H](C)[C@@H]4C)cc3F)ccnc2cc1OCCCN1CCOCC1 [Example 365, (1r,2R,3S)-N-[3-fluoro-4-({6-(methyloxy)-7-[(3-morpholin-4-ylpropyl)oxy]quinolin-4-yl}oxy)phenyl]-N′-(4-fluorophenyl)-2,3-dimethylcyclopropane-1,1-dicarboxamide]",< 50 nM,50 to 500 nM,50 to 500 nM
"COc1cc2c(Oc3ccc(NC(=O)[C@@]4(C(=O)Nc5ccc(F)cc5)[C@H](C)[C@@H]4C)cc3F)ccnc2cc1OCCCN1CCN(C)CC1 [Example 366, (1r,2R,3S)-N-{3-fluoro-4-[(6-(methyloxy)-7-{[3-(4-methylpiperazin-1-yl)propyl]oxy}quinolin-4-yl)oxy]phenyl}-N′-(4-fluorophenyl)-2,3-dimethylcyclopropane-1,1-dicarboxamide]",< 50 nM,50 to 500 nM,50 to 500 nM
"COc1cc2c(Oc3ccc(NC(=O)[C@@]4(C(=O)Nc5ccc(F)cc5)[C@H](C)[C@@H]4C)cc3F)ncnc2cc1OCCCN1CCOCC1 [Example 367, (1r,2R,3S)-N-[3-fluoro-4-({6-(methyloxy)-7-[(3-morpholin-4-ylpropyl)oxy]quinazolin-4-yl}oxy)phenyl]-N′-(4-fluorophenyl)-2,3-dimethylcyclopropane-1,1-dicarboxamide]",50 to 500 nM,< 50 nM,50 to 500 nM
"COc1cc2c(Oc3ccc(NC(=O)[C@@]4(C(=O)Nc5ccc(F)cc5)[C@H](C)[C@@H]4C)cc3F)ncnc2cc1OCCCN1CCN(C)CC1 [Example 368, (1r,2R,3S)-N-{3-fluoro-4-[(6-(methyloxy)-7-{[3-(4-methylpiperazin-1-yl)propyl]oxy}quinazolin-4-yl)oxy]phenyl}-N′-(4-fluorophenyl)-2,3-dimethylcyclopropane-1,1-dicarboxamide]",< 50 nM,< 50 nM,50 to 500 nM
"COc1cc2c(Oc3ccc(NC(=O)C4(C(=O)Nc5ccc(F)cc5)CCC4)cc3F)ncnc2cc1OCCCN1CCOCC1 [Example 369, N-[3-fluoro-4-({6-(methyloxy)-7-[(3-morpholin-4-ylpropyl)oxy]quinazolin-4-yl}oxy)phenyl]-N′-(4-fluorophenyl)cyclobutane-1,1-dicarboxamide]",50 to 500 nM,< 50 nM,50 to 500 nM
"COc1cc2c(Oc3ccc(NC(=O)C4(C(=O)Nc5ccc(F)cc5)[C@H](C)[C@H]4C)cc3F)ccnc2cc1OCCCN1CCOCC1 (stereo partly drawn) [Example 370, (2R,3R)-N-[3-fluoro-4-({6-(methyloxy)-7-[(3-morpholin-4-ylpropyl)oxy]quinolin-4-yl}oxy)phenyl]-N′-(4-fluorophenyl)-2,3-dimethylcyclopropane-1,1-dicarboxamide]",< 50 nM,< 50 nM,50 to 500 nM
"CCN(CC)CCCOc1cc2nccc(Oc3ccc(NC(=O)C4(C(=O)Nc5ccc(F)cc5)[C@H](C)[C@H]4C)cc3F)c2cc1OC (stereo partly drawn) [Example 371, (2R,3R)-N-(4-{[7-{[3-(diethylamino)propyl]oxy}-6-(methyloxy)quinolin-4-yl]oxy}-3-fluorophenyl)-N′-(4-fluorophenyl)-2,3-dimethylcyclopropane-1,1-dicarboxamide]",< 50 nM,< 50 nM,50 to 500 nM
"CCN(CC)CCCOc1cc2nccc(Oc3ccc(NC(=O)C4(C(=O)Nc5ccc(F)cc5)CC4(C)C)cc3F)c2cc1OC (stereo not drawn) [Example 372, N-(4-{[7-{[3-(diethylamino)propyl]oxy}-6-(methyloxy)quinolin-4-yl]oxy}-3-fluorophenyl)-N′-(4-fluorophenyl)-2,2-dimethylcyclopropane-1,1-dicarboxamide]",< 50 nM,< 50 nM,50 to 500 nM
"COc1cc2c(Oc3ccc(NC(=O)C4(C(=O)Nc5ccc(F)cc5)CC4(C)C)cc3F)ncnc2cc1OCCCN1CCOCC1 (stereo not drawn) [Example 373, N-[3-fluoro-4-({6-(methyloxy)-7-[(3-morpholin-4-ylpropyl)oxy]quinazolin-4-yl}oxy)phenyl]-N′-(4-fluorophenyl)-2,2-dimethylcyclopropane-1,1-dicarboxamide]",< 50 nM,< 50 nM,500 to 5000 nM
"CCN(CC)CCCOc1cc2nccc(Oc3ccc(NC(=O)[C@@]4(C(=O)Nc5ccc(F)cc5)[C@H](C)[C@@H]4C)cc3F)c2cc1OC [Example 374, (1r,2R,3S)-N-(4-{[7-{[3-(diethylamino)propyl]oxy}-6-(methyloxy)quinolin-4-yl]oxy}-3-fluorophenyl)-N′-(4-fluorophenyl)-2,3-dimethylcyclopropane-1,1-dicarboxamide]",< 50 nM,50 to 500 nM,50 to 500 nM
"CCN(CC)CCOc1cc2nccc(Oc3ccc(NC(=O)C4(C(=O)Nc5ccc(F)cc5)CC4(C)C)cc3F)c2cc1OC (stereo not drawn) [Example 375, N-(4-{[7-{[2-(diethylamino)ethyl]oxy}-6-(methyloxy)quinolin-4-yl]oxy}-3-fluorophenyl)-N′-(4-fluorophenyl)-2,2-dimethylcyclopropane-1,1-dicarboxamide]",< 50 nM,< 50 nM,500 to 5000 nM
"CCN(CC)CCOc1cc2nccc(Oc3ccc(NC(=O)[C@@]4(C(=O)Nc5ccc(F)cc5)[C@H](C)[C@@H]4C)cc3F)c2cc1OC [Example 376, (1r,2R,3S)-N-(4-{[7-{[2-(diethylamino)ethyl]oxy}-6-(methyloxy)quinolin-4-yl]oxy}-3-fluorophenyl)-N′-(4-fluorophenyl)-2,3-dimethylcyclopropane-1,1-dicarboxamide]",< 50 nM,50 to 500 nM,50 to 500 nM
"COc1cc2c(Oc3ccc(NC(=O)C4(C(=O)Nc5ccc(F)cc5)CC4(C)C)cc3F)ccnc2cc1OCCCN1CCOCC1 (stereo not drawn) [Example 377, N-[3-fluoro-4-({6-(methyloxy)-7-[(3-morpholin-4-ylpropyl)oxy]quinolin-4-yl}oxy)phenyl]-N′-(4-fluorophenyl)-2,2-dimethylcyclopropane-1,1-dicarboxamide]",< 50 nM,< 50 nM,50 to 500 nM

# Reference: patent publication US8476298B2 (Exelixis, Inc., priority 2003, dated 2013)
